Source: the NIST ThermoML archive (doi:10.1016/j.fluid.2011.07.005)

Legend:
[1] = 298.15 K; 101.33 kPa; Liquid; Vibrating tube method
[2] = refractive index (Na D-line) (dimensionless); conditions: 298.15 K; 101.33 kPa; Liquid; Standard Abbe refractometry
[3] = xn = mol fraction of the nth substance listed; conditions: 298.15 K, 101.3 kPa, Liquid, Vibrating tube method
[4] = refractive index (Na D-line) (dimensionless); xn = mol fraction of the nth substance listed; conditions: 298.15 K, 101.3 kPa, Liquid, Standard Abbe refractometry

CC(CC(C)(C)C)CP(=O)([O-])CC(C)CC(C)(C)C.CCCCCCCCCCCCCC[P+](CCCCCC)(CCCCCC)CCCCCC
Conditions | mass density [kg/m3] | refractive index
[1] | 886.43 | –
[2] | – | 1.47125

CCCCCCCCCCCCCC[P+](CCCCCC)(CCCCCC)CCCCCC.[Cl-] [trihexyl(tetradecyl)phosphonium chloride]
Conditions | mass density [kg/m3] | refractive index
[1] | 891.82 | –
[2] | – | 1.48175

CCCCCCCCCCCCCC[P+](CCCCCC)(CCCCCC)CCCCCC.[Cl-] [trihexyl(tetradecyl)phosphonium chloride] + CC(C)OC(C)C
Conditions | mass density, [3] [kg/m3] | refractive index, [4]
x2 = 0.0515 | 889.99 | 1.4808
x2 = 0.0994 | 888.06 | 1.4794
x2 = 0.2017 | 883.38 | 1.4763
x2 = 0.2989 | 878.11 | 1.4726
x2 = 0.4018 | 871.47 | 1.4678
x2 = 0.4997 | 863.46 | 1.4641
x2 = 0.5994 | 852.63 | 1.4553
x2 = 0.7017 | 836.78 | 1.4478
x2 = 0.8004 | 814.03 | 1.4384
x2 = 0.8993 | 778.62 | 1.4076
x2 = 0.9491 | 752.99 | 1.3881

CCCCCCCCCCCCCC[P+](CCCCCC)(CCCCCC)CCCCCC.[Cl-] [trihexyl(tetradecyl)phosphonium chloride] + CCO
Conditions | mass density, [3] [kg/m3] | refractive index, [4]
x2 = 0.0616 | 891.17 | 1.4814
x2 = 0.1053 | 890.69 | 1.4807
x2 = 0.2113 | 889.27 | 1.4789
x2 = 0.3038 | 887.74 | 1.4764
x2 = 0.4034 | 885.65 | 1.4742
x2 = 0.499 | 882.9 | 1.4709
x2 = 0.6004 | 878.9 | 1.466
x2 = 0.7038 | 872.77 | 1.4585
x2 = 0.7993 | 863.65 | 1.4473
x2 = 0.8999 | 845.08 | 1.425
x2 = 0.9497 | 826.4 | 1.4058
x2 = 0.9808 | 805.94 | 1.3801
